Measured values as given in PMC5004293, “Characterization of FRM-36143 as a new γ-secretase modulator for the potential treatment of familial Alzheimer’s disease” (Alzheimer's Research & Therapy, 2016).

Assays:
[1] = design: method as in PMID 24085193; settings: animals; takes 12–14 weeks to appear; cited from earlier work
DHCR24 [2] = target: T1, DHCR24 (Homo sapiens, UniProt Q15392); experiment: Desmosterol assay in HepG2 cells; assay type: cell-based
T1 construct: endogenous in cells; host or cells: HepG2 cells
T1 sequence (Q15392 23-516): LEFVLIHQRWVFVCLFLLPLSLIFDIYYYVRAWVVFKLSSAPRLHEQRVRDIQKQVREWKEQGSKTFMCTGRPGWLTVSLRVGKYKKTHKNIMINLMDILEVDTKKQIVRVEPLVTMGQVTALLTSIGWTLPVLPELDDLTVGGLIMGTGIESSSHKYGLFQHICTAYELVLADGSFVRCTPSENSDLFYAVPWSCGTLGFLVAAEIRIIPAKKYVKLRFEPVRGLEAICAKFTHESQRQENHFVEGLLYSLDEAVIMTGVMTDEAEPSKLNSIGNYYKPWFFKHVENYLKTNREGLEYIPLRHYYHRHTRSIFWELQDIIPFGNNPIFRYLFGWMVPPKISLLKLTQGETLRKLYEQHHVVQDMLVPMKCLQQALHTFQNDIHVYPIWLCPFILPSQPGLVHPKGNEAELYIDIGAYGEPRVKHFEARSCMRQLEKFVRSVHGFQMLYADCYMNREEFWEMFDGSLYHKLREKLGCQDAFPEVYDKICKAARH
Method: HepG2 cells were grown in Eagle's minimal essential medium (EMEM) containing 10 % fetal bovine serum, penicillin (50 U/mL), and streptomycin (50 ug/mL) and plated at a density of 1 million cells/well in 6-well plates for the experiment. Four to five days after plating, the cells were washed with Hank’s balanced salt solution (HBSS), and compound treatment applied for 2 h in HBSS. At the end of the treatment, cells were collected, washed with PBS, and pelleted. Sterols were extracted from the cell pellet by adding 100 μL PBS and 3 mL ethylacetate (containing an internal standard of 1 mg/mL d-cholesterol). Tubes were vortexed for 20 min and centrifuged at 2000 × g for 20 min at room temperature. The organic phase was dried under a stream of nitrogen at 40 °C and the samples reconstituted in 65 % methanol. Liquid chromatography-tandem mass spectrometry (LC-MS/MS) analysis was performed using a Shimadzu 20-series UFLC (Shimadzu, Kyoto, Japan) and an API 5500 (Applied Biosystems, Foster City, CA, USA) with a Hypersil GOLD column (100X2.1 mM; Thermo Fisher).

DHCR24 [3] = settings: cited from earlier work
Notch processing = experiment: Notch reporter assay (HeLa 6xCBF1-Luc, NotchΔE); assay type: cell-based, human; settings: overnight
Method: The wild-type CBF1 binding element was cloned in front of the SV40 promoter-driven luciferase reporter construct of pGL3pro (Promega, Madison, WI, USA) using the following oligonucleotides: • CBF1 Fw (5’→3’): […] • CBF1 Rv (5’→3’): […]
Oligonucleotides were phosphorylated using T4 polynucleotide kinase and annealed (by heating to 90 °C and cooling to room temperature in a buffer containing 0.1 M NaCl). Plasmid pGL3pro was cleaved with BglII and dephosphorylated using alkaline phosphatase. The oligonucleotide pair was then ligated using T4 ligase with the linearized plasmid DNA. A clone containing 6 copies of the CBF1 element in front of the SV40 promoter was chosen. The 6xCBF1-RE/SV40 promoter was excised from pGL3 using XhoI and HindIII, and the fragment transferred to the pGL4.17 [luc2/Neo] vector (Promega) was opened with the same restriction enzymes.
The full length human Notch in plasmid pCMV6-XL5 (Origene, Rockville, MD, USA) was used to amplify a truncated form of Notch (NotchΔE) containing the 20-amino-acid (a.a.) signal sequence followed by 5 a.a. […]
HeLa cells stably transfected with the 6xCBF1-Luc reporter were transiently transfected with the NotchΔE construct (4 μg DNA/10^6 cells) using Lipofectamine 2000 (Thermo Fisher, Waltham, MA, USA) in 6-well plates. […] Chemiluminescence was then read on an EnVision plate reader (Perkin Elmer).

Aβ42 = target: T2, Aβ42 (Homo sapiens, UniProt P05067); experiment: Aβ aggregation assay (thioflavin T); settings: 10 μM peptide, 25 °C, 18 h
T2 construct: purchased AnaSpec
Method: Aβ peptides (AnaSpec, Fremont, CA, USA) were dissolved at a concentration of 1 mg/mL in hexafluoroisopropanol (HFIP). Peptides were then mixed at different molar ratios. HFIP was evaporated in a SpeedVac without heating for 15 min. Peptides and mixtures were kept on ice and reconstituted in 50 mM Tris–HCl, 1 mM EDTA. Peptides (final concentration: 10 μM) were added to thioflavin T (final concentration: 2.5 μM; AnaSpec) in a black 96-well plate. Aggregation was monitored on a SpectraMax M5 plate reader (Molecular Devices, Inc.) at a constant temperature of 25 °C using excitation/emission of 440 nm/480 nm. Readings were recorded in triplicate every 10 min for a period of 18 h.

T2 sequence (P05067 672-713 limits assumed): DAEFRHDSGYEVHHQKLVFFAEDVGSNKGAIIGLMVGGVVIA

Compound: COc1cc(/C=C2\CCCN([C@@H](C)c3ccc(F)cc3)C2=O)ccc1-n1cnc(C)c1 [E2012]
- Lenticular opacity [1]: cause lenticular opacity
- Desmosterol induction (change from DMSO) (DHCR24 [2]; 1 μM): ~ 60 fold
- IC50 (DHCR24 [2]; desmosterol accumulation, 2 h): 63 nM
- Inhibition of DHCR24 (DHCR24 [3]): inhibit

Compound: COc1nc(/C=C/c2nc3n(n2)CCC[C@H]3c2ccccc2C(F)(F)F)ccc1-n1cnc(C)c1 [E2212]
- DHCR24 off-target activity (DHCR24 [3]): did not have this off-target activity

Compound: C[C@H](NC(=O)[C@@H](O)c1cc(F)cc(F)c1)C(=O)N[C@@H]1C(=O)N(C)c2ccccc2-c2ccccc21 [LY-411,575, reference compound]
- IC50 (Notch processing): 0.9 nM

Compound: Aβ42: Aβ peptide (AnaSpec) used in the aggregation assay
- Increase in aggregates over time (thioflavin T fluorescence) (Aβ42): > 15 fold
